From patent US10213451B2, “Methods and compounds for modulating the secretion or expression of adhesion proteins or angiopoietins of cells” (PACIFIC ARROW LIMITED, priority 2004, dated 2019)
≈ marks a conversion by molar mass, not a printed value.

Test system: ES2(ovarian) cells
Assay: MTT assay ES2
Type: cell-based, human
Method: MTT Assay. The procedure for MTT assay followed the method described by Carmichael et al. (1987) with modifications. The cells were seeded into a 96-well plate at concentration of 10,000/well for HTB-9, HeLa, H460, HCT116, T98G and OVCAR-3), 15,000/well for DU145, MCF-7, HepG2 and U2OS), and 40,000/well for K562 for 24 hours before drug-treatment. The cells were then exposed to the drugs for 48 hours (72 hours for HepG2 and U2OS, and 96 hours for MCF-7). After the drug-treatment, MTT (0.5 mg/mL) was added to cultures and incubated for an hour. The formazan (product of the reduction of tetrazolium by viable cells) formed and was dissolved with DMSO and the O.D. at 490 nm, and was measured by an ELISA reader. The MTT level of the cells before drug-treatment was also measured (T0). The % cell-growth (% G) is calculated as: % G=(TD−T0/TC−T0)×100(1), where TC or TD represents O.D. readings of control or drug-treated cells. When T0>TD, then the cytotoxicity (LC) expressed as % of the control is calculated as: % LC=(TD−T0/T0)×100(2).
Methods: ES2 cells were exposed to (i) Xanifolia-Y with concentrations of 40, 20, 10, 5, 2.5, and 1.25 ug/ml; or (ii) Paclitaxel with concentrations of […]; or (iii) Combined Xanifolia-Y and Paclitaxel with concentrations of each drug in same order (for example, 40 ug/ml Y plus 10 ng/ml T; 20 ug/ml Y plus 5 ng/ml T, etc. please see FIG. 28). Cells growth under these conditions was determined by the MTT assay.
Drug-treatment: cells cultures were replaced with fresh RPMI medium containing Xanifolia-Y (10 ug/ml final concentration) or DMSO (as control) at 0 hour. At 2, and 18 hour, aliquot of culture medium was taken out for Fibronectin determination (Western blot method). Cell viability at 18 hours was determined by MTT assay. Cultures were replaced with RPMI medium with MTT and incubated for an hour. The formation of formazan was dissolved in DMSO and OD at 570 nm was measured.

With C/C=C(/C)C(=O)O[C@H]1[C@H](OC(C)=O)C(C)(C)CC2C3=CCC4[C@@]5(C)CC[C@H](O)C(C)(C)C5CC[C@@]4(C)[C@]3(C)C[C@@H](O)[C@]21CO (stereo partly shown) [ACH-X] the IC50 (ES2 cells) was 40 µg/mL (≈ 65.1 µM).
With C/C=C(/C)C(=O)O[C@H]1[C@H](OC(=O)C(C)C)[C@@]2(CO)C(CC1(C)C)C1=CCC3[C@@]4(C)CC[C@H](O)C(C)(C)C4CC[C@@]3(C)[C@]1(C)[C@@H](O)[C@H]2O (stereo partly shown) [ACH-Y0] the IC50 (ES2 cells) was 20 µg/mL (≈ 30.4 µM).
CC=C(C)C(=O)OC1C(OC(=O)C(C)=CC)C2(CO)C(CC1(C)C)C1=CCC3C4(C)CCC(O)C(C)(CO)C4CCC3(C)C1(C)C(O)C2O (stereo not shown) [ACH-Y2] gave an IC50 (ES2 cells) of 35 µg/mL (≈ 51 µM).
Compound C/C=C(/C)C(=O)O[C@H]1[C@H](O)[C@@]2(COC(=O)C(C)CC)C(CC1(C)C)C1=CCC3[C@@]4(C)CC[C@H](O)C(C)(C)C4CC[C@@]3(C)[C@]1(C)[C@@H](O)[C@H]2O (stereo partly shown) [ACH-Y7] has an IC50 (ES2 cells) of 65 µg/mL (≈ 96.6 µM).
CC=C(C)C(=O)OC1C(OC(=O)C(C)=CC)C2(CO)C(O)CC3(C)C(=CCC4C5(C)CCC(O)C(C)(CO)C5CCC43C)C2CC1(C)C (stereo not shown) [ACH-Y8] gave an IC50 (ES2 cells) of 35 µg/mL (≈ 52.2 µM).
For C/C=C(/C)C(=O)O[C@H]1[C@H](OC(=O)/C(C)=C\C)[C@@]2(CO)C(CC1(C)C)C1=CCC3[C@@]4(C)CC[C@H](O)C(C)(C)C4CC[C@@]3(C)[C@]1(C)C[C@H]2O (stereo partly shown) [ACH-Y10], the IC50 (ES2 cells) was 20 µg/mL (≈ 30.5 µM).
In the case of C/C=C(/C)C(=O)O[C@H]1[C@H](OC(=O)c2ccccc2)[C@@]2(CO)C(CC1(C)C)C1=CCC3[C@@]4(C)CC[C@H](O)C(C)(C)C4CC[C@@]3(C)[C@]1(C)[C@@H](O)[C@H]2O (stereo partly shown) [ACH-Z4], the IC50 (ES2 cells) is reported as 40 µg/mL (≈ 57.7 µM).
Work on CC=C(C)C(=O)OC1C(OC(=O)c2ccccc2)C(C)(C)CC2C3=CCC4C5(C)CCC(OC6OC(C(=O)O)C(O)C(OC7OCC(O)C(O)C7O)C6OC6OC(CO)C(O)C(O)C6O)C(C)(C)C5CCC4(C)C3(C)CC(O)C21CO [Ba3, 3-O-[β-D-galactopyranosyl(1→2)]-β-D-xylopyranosyl (1→3)-β-D-glucuronopyranosyl-21-O-benzoyl, 22-O-angeloyl-3β, 15α, 21β, 22α, 28-pentahydroxyolean-12-ene] yielded an IC50 (ES2 cells) of 8 µg/mL (≈ 6.97 µM).
CC1(C)CC2C3=CCC4C5(C)CCC(OC6OC(C(=O)O)C(O)C(OC7OCC(O)C(O)C7O)C6OC6OC(CO)C(O)C(O)C6O)C(C)(C)C5CCC4(C)C3(C)CC(O)C2(CO)C(OC(=O)c2ccccc2)C1OC(=O)c1ccccc1 [Ba5, 3-O-[β-D-galactopyranosyl(1→2)]-β-D-xylopyranosyl (1→3)-β-D-glucuronopyranosyl-21-O-benzoyl, 22-O-benzoyl-3β, 15α, 21β, 22α, 28-pentahydroxyolean-12-ene] gave an IC50 (ES2 cells) of 16 µg/mL (≈ 13.7 µM).
CC(C)C(=O)OC1C(OC(=O)c2ccccc2)C(C)(C)CC2C3=CCC4C5(C)CCC(OC6OC(C(=O)O)C(O)C(OC7OCC(O)C(O)C7O)C6OC6OC(CO)C(O)C(O)C6O)C(C)(C)C5CCC4(C)C3(C)CC(O)C21CO [Ba7, 3-O-[β-D-galactopyranosyl(1→2)]-β-D-xylopyranosyl (1→3)-β-D-glucuronopyranosyl-21-O-benzoyl, 22-O-isobutyryl-3β, 15α, 21β, 22α, 28-pentahydroxyolean-12-ene] gave an IC50 (ES2 cells) of 11 µg/mL (≈ 9.69 µM).
For CC1(C)CC2C3=CCC4C5(C)CCC(OC6OC(C(=O)O)C(O)C(OC7OCC(O)C(O)C7O)C6OC6OC(CO)C(O)C(O)C6O)C(C)(C)C5CCC4(C)C3(C)CC(O)C2(CO)C(O)C1OC(=O)c1ccccc1 [Ba8, 3-O-[β-D-galactopyranosyl(1→2)]-β-D-xylopyranosyl (1→3)-β-D-glucuronopyranosyl-21-O-benzoyl-3β, 15α, 21β, 22α, 28-pentahydroxyolean-12-ene], the IC50 (ES2 cells) was 20 µg/mL (≈ 18.8 µM).
Work on CC1(C)CC2C3=CCC4C5(C)CCC(OC6OC(C(=O)O)C(O)C(OC7OCC(O)C(O)C7O)C6OC6OC(CO)C(O)C(O)C6O)C(C)(C)C5CCC4(C)C3(C)CC(O)C2(CO)C(O)C1OC1OCC(OC(=O)c2ccccc2)C(OC(=O)c2ccccc2)C1O [Ba9, 3-O-[β-D-galactopyranosyl(1→2)]-β-D-xylopyranosyl (1→3)-β-D-glucuronopyranosyl-21-O-[3,4-dibenzoyl-β-D-xylopyranosyl]-3β, 15α, 21β, 22α, 28-pentahydroxyolean-12-ene] yielded an IC50 (ES2 cells) of 12 µg/mL (≈ 9.22 µM).
CC=C(C)C(=O)OC1C(OC(=O)C=Cc2ccccc2)C23C(O)CC4(C)C5(C)CCC6C(C)(C)C(OC7OC(C(=O)O)C(O)C(OC8OC(CO)C(O)C(O)C8OC8OC(C)C(O)C(O)C8OC8OC(C)C(O)C(O)C8O)C7OC7OC(CO)C(O)C(O)C7O)CCC6(C)C5CCC4(OC2O)C3CC1(C)C (stereo not shown) [Mb1] gave an IC50 (ES2 cells) of 8 µg/mL (≈ 5.29 µM).
In the case of CC1OC(OC2C(OC3C(OC4C(O)C(C(=O)O)OC(OC5CCC6(C)C(CCC7(C)C6CCC68OC(O)C9(C(O)CC76C)C(OC(=O)C=Cc6ccccc6)C(OC(=O)c6ccccc6)C(C)(C)CC98)C5(C)C)C4OC4OC(CO)C(O)C(O)C4O)OC(CO)C(O)C3O)OC(C)C(O)C2O)C(O)C(O)C1O (stereo not shown) [Mb3], the IC50 (ES2 cells) is reported as 8 µg/mL (≈ 5.22 µM).
Work on CC1OC(OC2C(OC3C(OC4C(O)C(C(=O)O)OC(OC5CCC6(C)C(CCC7(C)C6CCC68OC(O)C9(C(O)CC76C)C(OC(=O)C=Cc6ccccc6)C(OC(=O)c6ccccc6)C(C)(C)CC98)C5(C)C)C4OC4OC(CO)C(O)C(O)C4O)OC(CO)C(O)C3O)OC(C)C(O)C2O)C(O)C(O)C1O (stereo not shown) [Mb4] yielded an IC50 (ES2 cells) of 15 µg/mL (≈ 9.78 µM).
In the case of CC=C(C)C(=O)OC1C(OC(=O)c2ccccc2)C(C)(C)CC2C13C(O)CC1(C)C4(C)CCC5C(C)(C)C(OC6OC(C(=O)O)C(O)C(OC7OC(CO)C(O)C(O)C7OC7OC(C)C(O)C(O)C7OC7OC(C)C(O)C(O)C7O)C6OC6OC(CO)C(O)C(O)C6O)CCC5(C)C4CCC21OC3O (stereo not shown) [Mb6], the IC50 (ES2 cells) is reported as 10 µg/mL (≈ 6.73 µM).
CC1O[C@@H](OC2[C@H](OC3[C@H](O[C@H]4C(O[C@@H]5OC(CO)[C@H](O)[C@@H](O)C5O)[C@H](O[C@H]5CC[C@@]6(C)C(CC[C@]7(C)C6CC[C@]68O[C@H](O)[C@]9(C6CC(C)(C)[C@@H](OC(=O)c6ccccc6)[C@@H]9OC(=O)C=Cc6ccccc6)[C@H](O)[C@H](O)[C@]87C)[C@@]5(C)CO)OC(C(=O)O)[C@H]4O)OC(CO)[C@H](O)[C@H]3O)OC(C)[C@H](O)[C@@H]2O)C(O)[C@@H](O)[C@H]1O (stereo partly shown) [Mb8] was tested, and the IC50 (ES2 cells) was 20 µg/mL (≈ 12.8 µM).
CC=C(C)C(=O)OC1C(OC(=O)c2ccccc2)C2(CO)C(CC1(C)C)C1=CCC3C4(C)CCC(OC5OC(C(=O)O)C(O)C(OC6OC(CO)C(O)C6O)C5OC5OC(CO)C(O)C(O)C5O)C(C)(C)C4CCC3(C)C1(C)C(O)C2O [Xanifolia Z4, 3-O-[β-D-galactopyranosyl(1→2)]-α-L-arabinofuranosyl(1→3)-β-D-glucuronopyranosyl-21-O-angeloyl, 22-O-benzoyl-3β, 15α, 16α, 21β, 22α, 28-hexahydroxyolean-12-ene] gave an IC50 (ES2 cells) of 20 µg/mL (≈ 17.2 µM).
C/C=C(/C)C(=O)O[C@H]1[C@H](OC(=O)/C(C)=C/C)[C@@]2(CO)C(CC1(C)C)C1=CCC3[C@@]4(C)CC[C@H](O[C@@H]5OC(C(=O)O)[C@@H](O)C(O[C@@H]6OC[C@@H](O)C(O)C6O)C5O[C@@H]5OC(CO)[C@H](O)C(O)C5O)C(C)(C)C4CC[C@@]3(C)[C@]1(C)C[C@H]2O (stereo partly drawn) [Xanifolia Z12, 3-O-[β-D-galactopyranosyl(1→2)]-β-D-xylopyranosyl (1→3)-β-D-glucuronopyranosyl-21-O-angeloyl, 22-O-tigloyl-3β, 16α, 21β, 22α, 28-pentahydroxyolean-12-ene] showed an IC50 (Homo sapiens, ES-2) of 16 µg/mL (≈ 14.2 µM).
